How the values were obtained:
Assay in all cases: relative viability (nuclei count vs DMSO), 5 days (fraction); higher = more cells survive
[1] = compound: C1=CC=C(C(=C1)C2=CC=C(C=C2)C3=CSC4=C3C(=C(C(=O)N4)C#N)O)O + Cc1nc(Nc2ncc(C(=O)Nc3c(C)cccc3Cl)s2)cc(N2CCN(CCO)CC2)n1 [Dasatinib] (partner 0.075 µM)
How it was run: (§1)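 Values are medians from duplicate plates. Each reflects relative viability, defined as the nuclei count of treated wells over that of vehicle wells. Lung cancer cell lines in 1536-well plates were pin-tool dosed one day after seeding with one drug alone or with a fixed anchor-drug dose plus five library-drug doses (not always all listed) in √10 steps, then fixed, stained and imaged at 4× after 5 days.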

TGX 221 + Pictilisib = compound: CC1=CN2C(=O)C=C(N=C2C(=C1)C(C)NC3=CC=CC=C3)N4CCOCC4 [TGX 221] + CS(=O)(=O)N1CCN(Cc2cc3nc(-c4cccc5[nH]ncc45)nc(N4CCOCC4)c3s2)CC1 [Pictilisib] (partner 1 µM)
How it was run: as §1

[2] = compound: O=C(CCCCCCNC(=O)c1cnc(N(c2ccccc2)c2ccccc2)nc1)NO [Ricolinostat] + CCNC(=O)c1noc(-c2cc(C(C)C)c(O)cc2O)c1-c1ccc(CN2CCOCC2)cc1 [Luminespib] (partner 0.01 µM)
How it was run: as §1

Ricolinostat + Lapatinib = compound: O=C(CCCCCCNC(=O)c1cnc(N(c2ccccc2)c2ccccc2)nc1)NO [Ricolinostat] + CS(=O)(=O)CCNCc1ccc(-c2ccc3ncnc(Nc4ccc(OCc5cccc(F)c5)c(Cl)c4)c3c2)o1 [Lapatinib] (partner 2 µM)
How it was run: as §1

Cell Line	relative viability ([1]; first compound 0.08 µM)	relative viability ([1]; first compound 0.253 µM)	relative viability ([1]; first compound 0.8 µM)	relative viability ([1]; first compound 2.53 µM)	relative viability ([1]; first compound 8 µM)	relative viability (TGX 221 + Pictilisib; first compound 0.08 µM)	relative viability (TGX 221 + Pictilisib; first compound 0.253 µM)	relative viability (TGX 221 + Pictilisib; first compound 0.8 µM)	relative viability (TGX 221 + Pictilisib; first compound 2.53 µM)	relative viability (TGX 221 + Pictilisib; first compound 8 µM)	relative viability ([2]; first compound 0.08 µM)	relative viability ([2]; first compound 0.253 µM)	relative viability ([2]; first compound 0.8 µM)	relative viability ([2]; first compound 2.53 µM)	relative viability (Ricolinostat + Lapatinib; first compound 0.08 µM)	relative viability (Ricolinostat + Lapatinib; first compound 0.253 µM)	relative viability (Ricolinostat + Lapatinib; first compound 0.8 µM)	relative viability (Ricolinostat + Lapatinib; first compound 2.53 µM)
BEN	0.287	0.284	0.312	0.318	0.318	0.552	0.519	0.521	0.503	0.456	0.228	0.371	0.402	0.326	0.613	0.643	0.588	0.423
NCI-H1355	0.619	0.668	0.708	0.64	0.639	0.444	0.437	0.426	0.362	0.365	0.645	0.764	0.753	0.712	–	1.01	1	0.863
EKVX	0.47	0.724	0.671	0.621	0.403	0.337	0.458	0.448	0.39	0.404	0.74	0.783	–	0.902	–	0.205	0.205	0.19
NCI-H358	0.211	0.2	0.174	0.139	0.196	0.374	0.352	0.373	0.354	0.32	–	0.269	0.482	0.254	0.311	0.505	0.501	0.519
A-427	0.645	0.67	0.716	0.658	0.619	0.613	0.7	0.679	0.676	0.676	–	0.81	0.605	0.698	0.892	1.01	0.897	1.02
NCI-H23	0.654	0.677	0.755	1.01	0.604	0.518	0.465	0.446	0.439	0.451	–	0.203	0.214	0.169	1.16	1.25	0.998	0.773
NCI-H596	0.568	0.678	0.713	0.557	0.476	0.4	0.439	0.409	0.389	0.466	1.12	0.83	0.881	1.1	0.985	1.08	1	0.743
NCI-H1563	0.469	0.553	0.529	0.439	0.477	0.651	0.622	0.573	0.634	0.638	0.553	0.502	0.508	0.525	0.898	0.927	0.97	0.834
NCI-H2087	0.67	0.878	0.969	0.925	0.703	0.989	0.966	0.883	0.811	0.87	–	0.205	0.15	0.159	1.07	1.05	0.921	0.698
NCI-H520	0.193	0.179	0.258	0.202	0.212	0.335	0.237	0.276	0.251	0.296	–	0.208	0.295	0.233	–	0.745	0.851	0.786
NCI-H727	0.507	0.415	0.483	0.285	0.419	0.455	0.464	0.402	0.43	0.356	0.314	0.283	0.236	0.379	0.523	1.02	0.862	0.77
NCI-H1734	0.396	0.474	0.452	0.489	0.455	0.452	0.41	0.435	0.377	0.456	0.197	0.19	0.185	0.178	1	1.05	1.02	0.891
NCI-H1993	0.619	0.701	0.596	0.544	0.549	0.709	0.886	0.759	0.864	0.787	–	0.941	0.87	0.724	0.714	0.867	0.796	0.91
HCC-827	0.315	0.469	0.313	0.403	0.224	1.02	0.979	1.09	0.896	0.732	0.581	0.76	0.487	0.552	0.173	0.184	0.173	0.155
NCI-H1437	0.32	0.363	0.344	0.456	0.371	0.439	0.359	0.473	0.462	0.399	0.984	1.08	1.12	0.92	0.705	0.767	0.714	0.642
EPLC-272H	0.311	0.306	0.339	0.407	0.303	0.259	0.295	0.369	–	0.339	0.159	0.266	0.292	0.161	–	0.978	1.03	0.884
NCI-H2126	0.588	0.573	0.604	0.45	0.568	0.452	0.498	0.488	0.458	0.518	–	0.919	1.01	0.862	0.615	0.751	0.719	0.801
NCI-H1666	0.6	0.858	0.987	0.903	0.722	0.321	0.375	0.41	0.32	0.418	0.969	1.04	0.976	0.836	0.564	0.65	0.542	0.374
RERF-LC-KJ	0.765	0.889	0.854	0.771	0.657	0.488	0.57	0.551	0.466	0.481	1.31	1.07	1.16	0.809	0.828	0.864	0.858	0.808
ABC-1	0.526	0.65	0.559	0.542	0.432	0.677	0.491	0.94	0.766	0.704	0.537	0.761	0.527	0.261	1.27	1.12	1.3	1.65

Reference: the supplement of paper PMC10307832
